The source made the active and inactive calls. How the calls were made is not given here.
Test system: rodent carcinogenicity bioassays, tumor incidence
Experiment: CCRIS carcinogenicity studies
Procedure, shortened: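 NCI-built, expert-reviewed records of carcinogenicity and related test outcomes (mutagenicity, tumor promotion/inhibition) compiled from published and report sources, historical span 1985-2011, not updated.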

Compound: O=NN1CCNCC1
- carcinogen call (Species: RAT, Strain/Sex: F344/FEMALE, Route: INTRAVESICAL, Dose: 0, 3.8 G (TOTAL DOSE) INJECTED INTO BLADDER 2/WK OVER 48 WK (STUDY DURATION: 102 WK), Tumor Site: Type of Lesion: NASAL CAVITY: TUMOR, BLADDER: TUMOR): active; positive

Compound: Cc1cc(-c2ccc(N/N=C3/C(=O)c4c(N)cc(S(=O)(=O)O)cc4C=C3S(=O)(=O)O)c(C)c2)ccc1N/N=C1/C(=O)c2c(N)cc(S(=O)(=O)O)cc2C=C1S(=O)(=O)O
- carcinogen call (Species: RAT, Route: INTRAPERITONEAL, SUBCUTANEOUS, Tumor Site: Type of Lesion: LIVER, INJECTION SITE): active; positive

Compound: Nc1ccc([N+](=O)[O-])cc1
- carcinogen call (Species: MOUSE, Strain/Sex: B6C3F1/FEMALE, Route: GAVAGE, Dose: 0, 3, 30, 100 MG/KG IN CORN OIL 5 D/WK FOR 103 WK (STUDY DURATION: 104 WK), Dose: 0, 3, 30, 100 MG/KG IN CORN OIL 5 D/WK FOR 103 WK (STUDY DURATION: 104 WK)): inactive; negative
- carcinogen call (Species: MOUSE, Strain/Sex: B6C3F1/MALE, Route: GAVAGE, Dose: 0, 3, 30, 100 MG/KG IN CORN OIL 5 D/WK FOR 103 WK (STUDY DURATION: 104 WK), Dose: 0, 3, 30, 100 MG/KG IN CORN OIL 5 D/WK FOR 103 WK (STUDY DURATION: 104 WK), Tumor Site: Type of Lesion: LIVER: HEMANGIOSARCOMA, ALL ORGANS: HEMANGIOMA OR HEMANGIOSARCOMA): equivocal
- carcinogen call (Species: RAT, Strain/Sex: STRAIN CD/MALE, FEMALE, Route: GAVAGE, Dose: 0, 0.25, 1.5, 9 MG/KG IN CORN OIL 1/D 7 D/WK FOR 24 MO (STUDY DURATION: 24 MO), Dose: 0, 0.25, 1.5, 9 MG/KG IN CORN OIL 1/D 7 D/WK FOR 24 MO (STUDY DURATION: 24 MO)): inactive; negative

Compound: COC(N)=O
- carcinogen call (Species: MOUSE, Strain/Sex: B6C3F1/FEMALE, Route: GAVAGE, Dose: 0, 500, 1000 MG/KG IN DISTILLED WATER 5D/WK FOR 103 WK (STUDY DURATION: 105 WK), 1000 MG/KG IN DISTILLED WATER 5D/WK FOR, Dose: 0, 500, 1000 MG/KG IN DISTILLED WATER 5D/WK FOR 103 WK (STUDY DURATION: 105 WK), 1000 MG/KG IN DISTILLED WATER 5D/WK FOR): inactive; negative
- carcinogen call (Species: MOUSE, Strain/Sex: B6C3F1/MALE, Route: GAVAGE, Dose: 0, 500, 1000 MG/KG IN DISTILLED WATER 5D/WK FOR 103 WK (STUDY DURATION: 105 WK);1000 MG/KG IN DISTILLED WATER 5D/WK FOR, Dose: 0, 500, 1000 MG/KG IN DISTILLED WATER 5D/WK FOR 103 WK (STUDY DURATION: 105 WK);1000 MG/KG IN DISTILLED WATER 5D/WK FOR): inactive; negative
- carcinogen call (Species: RAT, Strain/Sex: F344/FEMALE, Route: GAVAGE, Dose: 0, 100, 200 MG/KG IN DISTILLED WATER 5D/WK FOR 103 WK (STUDY DURATION: 105 WK), 400 MG/KG IN DISTILLED WATER 5D/WK FOR 6, Dose: 0, 100, 200 MG/KG IN DISTILLED WATER 5D/WK FOR 103 WK (STUDY DURATION: 105 WK), 400 MG/KG IN DISTILLED WATER 5D/WK FOR 6, Tumor Site: Type of Lesion: LIVER: NEOPLASTIC NODULE, LIVER: NEOPLASTIC NODULE OR HEPATOCELLULAR CARCINOMA, LIVER: HEPATOCELLULAR CARCINOMA, Tumor Site: Type of Lesion: LIVER: NEOPLASTIC NODULE, LIVER: NEOPLASTIC NODULE OR HEPATOCELLULAR CARCINOMA, LIVER: HEPATOCELLULAR CARCINOMA): active; positive
- carcinogen call (Species: RAT, Strain/Sex: F344/MALE, Route: GAVAGE, Dose: 0, 100, 200 MG/KG IN DISTILLED WATER 5D/WK FOR 103 WK (STUDY DURATION: 105 WK), 400 MG/KG IN DISTILLED WATER 5D/WK FOR 6, Dose: 0, 100, 200 MG/KG IN DISTILLED WATER 5D/WK FOR 103 WK (STUDY DURATION: 105 WK), 400 MG/KG IN DISTILLED WATER 5D/WK FOR 6, Tumor Site: Type of Lesion: LIVER: NEOPLASTIC NODULES, LIVER: HEPATOCELLULAR CARCINOMA): active; positive

Compound: O=C1C=C[C@H]2CO[C@@H]1O2
- carcinogen call (Species: MOUSE, Strain/Sex: CD-1/FEMALE, Route: DERMAL, Dose: 0, 2.5 UMOL/0.1 DMSO 2/WK FOR 5 WK FOLLOWED 1 WK LATER BY 0.1 ML ACETONE 2/WK FOR 47 WK (STUDY DURATION: 52 WK)): inactive; negative

Compound: c1ccc(-c2ccccc2)cc1
- carcinogen call (Species: MOUSE, Strain/Sex: CRJ:BDF1/FEMALE, Route: ORAL, Dose: 667, 2000, 6000 PPM IN DIET FOR 2 YRS (STUDY DURATION: 2 YRS), Dose: 667, 2000, 6000 PPM IN DIET FOR 2 YRS (STUDY DURATION: 2 YRS), Tumor Site: Type of Lesion: LIVER: HEPATOCELLULAR ADENOMA AND CARCINOMA): active; positive
- carcinogen call (Species: MOUSE, Strain/Sex: CRJ:BDF1/MALE, Route: ORAL, Dose: 0, 667, 2000, 6000 PPM IN DIET FOR 2 YRS (STUDY DURATION: 2 YRS), Dose: 0, 667, 2000, 6000 PPM IN DIET FOR 2 YRS (STUDY DURATION: 2 YRS)): inactive; negative
- carcinogen call (Species: RAT, Strain/Sex: F344/FEMALE, Route: ORAL, Dose: 0, 500, 1500, 4500 PPM IN DIET FOR 105 WK (STUDY DURATION: 105 WK ), Dose: 0, 500, 1500, 4500 PPM IN DIET FOR 105 WK (STUDY DURATION: 105 WK )): inactive; negative
- carcinogen call (Species: RAT, Strain/Sex: F344/MALE, Route: ORAL, Dose: 0, 500, 1500, 4500 PPM IN DIET FOR 105 WK (STUDY DURATION: 105 WK ), Dose: 0, 500, 1500, 4500 PPM IN DIET FOR 105 WK (STUDY DURATION: 105 WK ), Tumor Site: Type of Lesion: URINARY BLADDER: TRANSITIONAL CELL PAPILLOMA, TRANSITIONAL CELL CARCINOMA): active; positive
